# Active and inactive are the calls of the source. The rule behind the calls is not given here.
# Assays:
# [1] = species on record: Rattus norvegicus; experiment: animal or person; type: functional; settings: Charles River, route oral
# Description: Antidiarrheal activity in Charles River rat assessed as inhibition of castor oil-induced diarrhea by measuring protected animals at 0.5 mg/kg, po administered 1 hr prior to castor oil challenge measured after 1 hr relative to vehicle-treated control
# [2] = tested on: Rattus norvegicus; experiment: Antianxiety activity in Long-Evans rat assessed as reduction in motor activity at 100 mg/kg, po after 2 hrs relative to vehicle-treated control; type: functional; design: scale not given: the % may be the effect or the level left
# [3] = tested on: Rattus norvegicus; experiment: Antianxiety activity in Long-Evans rat assessed as reduction in motor activity at 10 mg/kg, po after 2 hrs relative to vehicle-treated control; type: functional; design: scale not given: the % may be the effect or the level left
# [4] = tested on: Mus musculus; experiment: Analgesic activity in po dosed mouse assessed as inhibition of acetic acid-induced writhing administered 30 mins prior to acetic acid challenge measured after 5 mins for 20 mins; type: functional
# [5] = tested on: Rattus norvegicus; experiment: Analgesic activity in po dosed Sprague-Dawley rat after 15 to 90 mins by tail flick test; type: functional
# [6] = tested on: Rattus norvegicus; experiment: Antisecretory activity in Sprague-Dawley rat assessed as decrease in pepsin concentration at 50 mg/kg, po administered 30 mins prior to pylorus ligation measured after 4 hrs relative to control; type: functional; design: scale not given: the % may be the effect or the level left
# [7] = tested on: Rattus norvegicus; experiment: Increase in acid output in Sprague-Dawley rat at 50 mg/kg, po administered 30 mins prior to pylorus ligation measured after 4 hrs relative to control; type: functional
# [8] = tested on: Rattus norvegicus; experiment: Increase in methamphetamine-induced hyperactivity in rat at 5 mg/kg, po administered prior to methamphetamine challenge relative to vehicle-treated control; type: functional
# [9] = tested on: Rattus norvegicus; experiment: Increase in motor activity in Long-Evans rat at 5 mg/kg, po after 2 hrs relative to vehicle-treated control; type: functional
# [10] = tested on: Mus musculus; experiment: Analgesic activity in mouse assessed as inhibition of acetic acid-induced writhing at 100 mg/kg, po administered 30 mins prior to acetic acid challenge measured after 5 mins for 20 mins; type: functional
# [11] = tested on: Rattus norvegicus; experiment: Increase in volume in Sprague-Dawley rat at 50 mg/kg, po administered 30 mins prior to pylorus ligation measured after 4 hrs relative to control; type: functional
# [12] = tested on: Rattus norvegicus; experiment: Antisecretory activity in Sprague-Dawley rat assessed as decrease in acidity at 50 mg/kg, po administered 30 mins prior to pylorus ligation measured after 4 hrs relative to control; type: functional; design: scale not given: the % may be the effect or the level left
# [13] = tested on: Mus musculus; experiment: Antianxiety activity in albino BALB/cJ mouse assessed as reduction in footshock-induced fighting behavior at 10 mg/kg, po after 30 to 90 mins; type: functional; design: scale not given: the % may be the effect or the level left
# [14] = Acute toxicity in po dosed mouse; type: organism-based; settings: in vivo
# [15] = tested on: Felis catus; experiment: Hypnotic activity in cat assessed as increase in total sleep time at 0.5 mg/kg administered orally through diet measured for 12 hrs by EEG analysis; type: functional; settings: route oral
# [16] = tested on: Rattus norvegicus; experiment: Antihypertensive activity in spontaneously hypertensive rat model assessed as reduction in blood pressure at 30 mg/kg, po after 3 hrs; type: functional; design: scale not given: the % may be the effect or the level left
# [17] = tested on: Rattus norvegicus; experiment: Antihypertensive activity in spontaneously hypertensive rat model assessed as reduction in blood pressure at 30 mg/kg, po after 24 hrs; type: functional; design: scale not given: the % may be the effect or the level left
# [18] = tested on: Felis catus; experiment: Hypnotic activity in cat assessed as increase in non-REM sleep time at 0.5 mg/kg administered orally through diet measured for 12 hrs by EEG analysis; type: functional; settings: route oral
# [19] = tested on: Rattus norvegicus; experiment: Increase in pepsin output in Sprague-Dawley rat at 50 mg/kg, po administered 30 mins prior to pylorus ligation measured after 4 hrs relative to control; type: functional
# [20] = tested on: Felis catus; experiment: Hypnotic activity in cat assessed as increase in total sleep time at 1 mg/kg administered orally through diet measured for 12 hrs by EEG analysis; type: functional; settings: route oral
# [21] = tested on: Rattus norvegicus; experiment: Antianxiety activity in Long-Evans rat assessed as reduction in motor activity at 0.5 mg/kg, po after 2 hrs relative to vehicle-treated control; type: functional; design: scale not given: the % may be the effect or the level left
# [22] = tested on: Mus musculus; experiment: Antidepressant activity in po dosed mouse assessed as potentiation of DOPA-induced effect administered 4 hrs prior to DOPA challenge; type: functional; settings: read-out: MED
# [23] = tested on: Felis catus; experiment: Hypnotic activity in cat assessed as increase in total sleep time at 0.1 mg/kg administered orally through diet measured for 12 hrs by EEG analysis; type: functional; settings: route oral
# [24] = tested on: Rattus norvegicus; experiment: Antiulcer activity in albino Sprague-Dawley rat shay ulcer model assessed as ulcer index scores at 50 mg/kg administered intraduodenally post pyloric ligation measured after 18.5 hrs relative to vehicle-treated control; type: functional; settings: route intraduodenal
# [25] = tested on: Rattus norvegicus; experiment: Antipsychotic activity in rat assessed as reduction of methamphetamine-induced hyperactivity at 10 mg/kg, po administered prior to methamphetamine challenge relative to vehicle-treated control; type: functional; design: scale not given: the % may be the effect or the level left
# [26] = tested on: Rattus norvegicus; experiment: Antianxiety activity in Long-Evans rat assessed as reduction in motor activity at 1 mg/kg, po after 2 hrs relative to vehicle-treated control; type: functional; design: scale not given: the % may be the effect or the level left
# [27] = tested on: Felis catus; experiment: Hypnotic activity in cat assessed as increase in non-REM sleep time at 0.25 mg/kg administered orally through diet measured for 12 hrs by EEG analysis; type: functional; settings: route oral
# [28] = tested on: Rattus norvegicus; experiment: Antihypertensive activity in spontaneously hypertensive rat model assessed as reduction in blood pressure at 10 mg/kg, po after 24 hrs; type: functional; design: scale not given: the % may be the effect or the level left
# [29] = tested on: Rattus norvegicus; experiment: Antihypertensive activity in spontaneously hypertensive rat model assessed as reduction in blood pressure at 3 mg/kg, po after 24 hrs; type: functional; design: scale not given: the % may be the effect or the level left
# [30] = tested on: Canis familiaris; experiment: Antianxiety activity in po dosed dog assessed as ataxia administered as single dose measured up to 24 hrs; type: functional; settings: Canis lupus familiaris, read-out: MED
# [31] = tested on: Mus musculus; experiment: Antianxiety activity in albino BALB/cJ mouse assessed as reduction in footshock-induced fighting behavior at 1 mg/kg, po after 30 to 90 mins; type: functional; design: scale not given: the % may be the effect or the level left
# [32] = tested on: Rattus norvegicus; experiment: Antihypertensive activity in spontaneously hypertensive rat model assessed as reduction in blood pressure at 10 mg/kg, po after 3 hrs; type: functional; design: scale not given: the % may be the effect or the level left
# [33] = tested on: Rattus norvegicus; experiment: Antisecretory activity in Sprague-Dawley rat assessed as decrease in pepsin output at 50 mg/kg, po administered 30 mins prior to pylorus ligation measured after 4 hrs relative to control; type: functional; design: scale not given: the % may be the effect or the level left
# [34] = tested on: Felis catus; experiment: Hypnotic activity in cat assessed as increase in non-REM sleep time at 0.025 mg/kg administered orally through diet measured for 12 hrs by EEG analysis; type: functional; settings: route oral
# [35] = tested on: Rattus norvegicus; experiment: Antiulcer activity in albino Sprague-Dawley rat stress ulcer model assessed as prevention of stress-induced gastric lesions by measuring ulcer index score at 10 mg/kg, po administered 30 mins prior to stress measured after 4 hrs; type: functional, Stomach
# [36] = tested on: Felis catus; experiment: Hypnotic activity in cat assessed as increase in non-REM sleep time at 0.1 mg/kg administered orally through diet measured for 12 hrs by EEG analysis; type: functional; settings: route oral
# [37] = tested on: Rattus norvegicus; experiment: Antihypertensive activity in spontaneously hypertensive rat model assessed as reduction in blood pressure at 3 mg/kg, po after 3 hrs; type: functional; design: scale not given: the % may be the effect or the level left
# [38] = tested on: Felis catus; experiment: Hypnotic activity in cat assessed as increase in total sleep time at 0.25 mg/kg administered orally through diet measured for 12 hrs by EEG analysis; type: functional; settings: route oral
# [39] = tested on: Rattus norvegicus; experiment: Antiulcer activity in albino Sprague-Dawley rat reserpine ulcer model assessed as prevention of reserpine-induced gastric lesions by measuring ulcer index scores at 10 mg/kg, po administered 30 mins prior to reserpine challenge measured after 6 hrs; type: functional; settings: Stomach
# [40] = tested on: Felis catus; experiment: Hypnotic activity in cat assessed as decrease in total sleep time at 0.025 mg/kg administered orally through diet measured for 12 hrs by EEG analysis; type: functional; settings: route oral
# [41] = tested on: Rattus norvegicus; experiment: Antiulcer activity in albino Sprague-Dawley rat stress ulcer model assessed as prevention of stress-induced gastric lesions by measuring ulcer index score at 40 mg/kg, po administered 30 mins prior to stress measured after 4 hrs; type: functional, Stomach
# [42] = tested on: Rattus norvegicus; experiment: Antisecretory activity in Sprague-Dawley rat assessed as decrease in acid output at 50 mg/kg, po administered 30 mins prior to pylorus ligation measured after 4 hrs relative to control; type: functional; design: scale not given: the % may be the effect or the level left
# [43] = tested on: Rattus norvegicus; experiment: Antisecretory activity in Sprague-Dawley rat assessed as decrease in volume at 50 mg/kg, po administered 30 mins prior to pylorus ligation measured after 4 hrs relative to control; type: functional; design: scale not given: the % may be the effect or the level left
# [44] = tested on: Rattus norvegicus; experiment: Antiulcer activity in albino Sprague-Dawley rat shay ulcer model assessed as ulcer index scores at 20 mg/kg administered intraduodenally post pyloric ligation measured after 18.5 hrs relative to vehicle-treated control; type: functional; settings: route intraduodenal
# [45] = species on record: Rattus norvegicus; experiment: animal or person; type: functional; settings: Charles River, route oral; remark: listed apart in the source
# Description: Antidiarrheal activity in Charles River rat assessed as inhibition of castor oil-induced diarrhea by measuring protected animals at 1 mg/kg, po administered 1 hr prior to castor oil challenge measured after 1 hr relative to vehicle-treated control
# [46] = tested on: Rattus norvegicus; experiment: Antiulcer activity in albino Sprague-Dawley rat reserpine ulcer model assessed as prevention of reserpine-induced gastric lesions by measuring ulcer index scores at 50 mg/kg, po administered 30 mins prior to reserpine challenge measured after 6 hrs; type: functional, Stomach
# [47] = tested on: Rattus norvegicus; experiment: Antidiarrheal activity in Charles River rat assessed as inhibition of castor oil-induced diarrhea by measuring protected animals at 0.25 mg/kg, po administered 1 hr prior to castor oil challenge measured after 1 hr relative to vehicle-treated control; type: functional
# [48] = tested on: Rattus norvegicus; experiment: Antipsychotic activity in rat assessed as reduction of methamphetamine-induced hyperactivity at 5 mg/kg, po administered prior to methamphetamine challenge relative to vehicle-treated control; type: functional; design: scale not given: the % may be the effect or the level left
# [49] = tested on: Rattus norvegicus; experiment: Antiulcer activity in albino Sprague-Dawley rat shay ulcer model assessed as ulcer index scores at 40 mg/kg administered intraduodenally post pyloric ligation measured after 18.5 hrs relative to vehicle-treated control; type: functional; settings: route intraduodenal
# [50] = tested on: Rattus norvegicus; experiment: Increase in motor activity in Long-Evans rat at 10 mg/kg, po after 2 hrs relative to vehicle-treated control; type: functional
# [51] = tested on: Mus musculus; experiment: Analgesic activity in mouse assessed as inhibition of acetic acid-induced writhing at 10 mg/kg, po administered 30 mins prior to acetic acid challenge measured after 5 mins for 20 mins; type: functional
smiles,measurement,setting,value
CC(C)=CCN1CC[C@]2(C)c3cc(O)ccc3C[C@H]1[C@H]2C [(+)-PENTAZOCINE],inhibition in vivo at 0.5 mg/kg,[1],0%
same,Activity,[2],64%
same,Activity,[3],30%
same,ED50,[4],37.6 mg/kg
same,ED50,[5],60 mg/kg
C#CCN1CCC2=C(C1)c1c(O)cc(CCCCC)cc1OC2(C)C,Activity,[6],8.3%
same,Activity,[7],6.1%
same,Activity,[8],47%
same,Activity,[9],6%
same,inhibition in vivo at 100 mg/kg,[10],19%
same,Activity,[11],24.6%
same,Activity,[12],14.8%
same,Activity,[13],6%
same,LD50,[14],≥ 1000 mg/kg
same,Time,[15],28 min
same,Activity,[16],0%
same,Activity,[17],9%
same,Time,[18],12 min
same,Activity,[19],18.3%
C#CCN1CCC2=C(C1)c1c(O)cc(C(C)C(C)CCCCC)cc1OC2(C)C (centres undefined),Time,[20],39 min
same,Activity,[21],35%
same,inhibition in vivo at 0.5 mg/kg,[1],63%
same,minimal effective dose,[22],2 mg/kg
same,Time,[23],100 min
same,UI,[24],0.5
same,Activity,[25],74%
same,Activity,[26],71%
same,Time,[27],21 min
same,Activity,[28],27%
same,Activity,[29],4%
same,Activity,[12],23.5%
same,minimal effective dose,[30],1 mg/kg
same,Activity,[31],42%
same,Activity,[32],23%
same,Activity,[33],41.9%
same,Time,[34],25 min
same,Activity,[13],62%
same,UI,[35],1.3
same,LD50,[14],≥ 1000 mg/kg
same,Time,[36],62 min
same,Activity,[37],7%
same,Time,[15],44 min
same,Time,[38],56 min
same,Activity,[39],inactive
same,Activity,[3],75%
same,Time,[40],-12 min
same,UI,[41],1.6
same,Activity,[42],49.8%
same,Activity,[43],39.3%
same,Time,[18],28 min
same,ED50,[4],4.3 mg/kg
same,UI,[44],4.2
same,inhibition in vivo at 1 mg/kg,[45],100%
same,UI,[46],1.8
same,inhibition in vivo at 0.25 mg/kg,[47],20%
same,Activity,[48],52%
same,UI,[49],0.3
C#CCN1CCC2=C(C1)c1c(O)cc(C(C)CCc3ccc(F)cc3)cc1OC2(C)C (centres undefined),Activity,[25],0%
same,Activity,[50],44%
same,Activity,[13],0%
same,LD50,[14],≥ 1000 mg/kg
same,Activity,[16],4%
same,Activity,[17],13%
same,inhibition in vivo at 10 mg/kg,[51],10%

# Source: ChEMBL document CHEMBL3272295, “Drugs derived from cannabinoids. 5. delta6a,10a-Tetrahydrocannabinol and heterocyclic analogs containing aromatic side chains” (J Med Chem, 1976)
